Assay results as given in patent US20250282797A1, “CRYSTALLINE FORM OF FGFR4 INHIBITOR AND USE THEREOF” (CSPC ZHONGQI PHARMACEUTICAL TECHNOLOGY (SHIJIAZHUANG) CO., …, priority 2022, published 2025).
In brackets after ≈: the same amount, converted by molar mass. Read-outs that look alike come from different tables or passages of the source.

Assays:
[1] = Pharmacokinetic study in rats; format: in vivo, SD rats; settings: rat
Source text: Test Example 6: Pharmacokinetic Study of Compound of Formula B in Rats
Assay drug: the compound of formula B obtained in Preparation Example 1.
Instrument: LC-MS/MS-13 (TQ5500, Triple quad), with the operation software of Xcalibur2.0.7 (Thermo Fisher Scientific, USA); LC-10ADvp liquid chromatography system (Shimadzu, Japan); Shimadzu LC-20AD liquid chromatography pump; Shimadzu CBM-20A system controller; Shimadzu CTO-20A column oven; and SIL-20AC autosampler (Shimadzu, Japan). Chromatographic column: Agilent Zorbax SB-CN 3.5 u 100×2.1 mm; column temperature: 40° C.; mobile phase A: 0.1% aqueous formic acid solution; mobile phase B: a 0.1% solution of formic acid in acetonitrile; flow rate: 0.60 mL/min. The gradient elution was performed as follows: from 0 to 0.5 min, the mobile phase B was increased from 1% to 90%; from 0.5 to 1.2 min, 90% of the mobile phase B was maintained; starting from 1.21 min, the mobile phase B was changed back to 1%; and elution was stopped at 1.60 min.
Animals: 6 male SD rats were supplied by Shanghai Sippe-Bk Lab Animal Co., Ltd. The body weight range was 180-220 g. After purchase, the rats were bred in the laboratory of the experimental animal center for 2 days for later use. The rats were fasted 10-14 h before administration and 4 h after administration, and given ad libitum access to water during the assay. The rats were randomly divided into two groups, with 3 rats in each group. One group was intravenously injected, and the other group was intragastrically administered.
Preparation of intragastric administration solution: the compound of formula B (4.85 mg) was precisely weighed out, and a mixed aqueous solution (9.70 mL) containing 0.5% methylcellulose and 0.4% Tween-80 was added, followed by sonication at room temperature to prepare a 0.5 mg/mL suspension. Preparation of intravenous injection solution: the compound of formula B (2.79 mg) was precisely weighed out, and DMSO (21 μL), PEG200 (2.79 mL), and normal saline (4.164 mL) were added to prepare a 0.4 mg/mL solution.
Blood was collected in the intragastric administration group about 0.25 h before administration and 0.25 h, 0.5 h, 1 h, 1.5 h, 2 h, 4 h, 6 h, 8 h, 12 h, and 24 h after administration. Blood was collected in the intravenous administration group about 0.25 h before administration and 0.083 h, 0.25 h, 0.5 h, 0.75 h, 1 h, 2 h, 4 h, 8 h, 12 h, and 24 h after administration. The blood was collected from the jugular vein or other venipuncture at 0.25 mL/time point and anticoagulated with EDTA-K2 or EDTA-K3. The collected blood was placed on the ice. After the blood samples were collected, plasma was separated by centrifugation (centrifugation conditions: 6800 g/min, 6 min, 2-8° C.). The collected plasma samples were stored in a refrigerator at −80° C. for testing prior to analysis.
The compound of the formula B was accurately weighed out and formulated into different concentrations, and quantitative analysis was performed on a mass spectrometer to establish a standard curve. The concentration of the compound of formula B in the plasma described above was then measured to obtain the concentrations of the compound of formula B at different time points. All the measured data were collected and processed by relevant software, and pharmacokinetic parameters (mainly including kinetic parameters Tmax, T1/2, Cmax, AUC0-t, etc.) were calculated by adopting a statistical moment method. […]

Solubility test = format: physicochemical; settings: 200 rpm; for FeSSIF Solubility: FeSSIF (pH about 5.00); for solubility at 24 h: 37 °C, thermodynamic from solid
Experimental: Test Example 2: Solubility Test
The crystalline form I sample (5 mg) obtained in Example 1 and the crystalline form II sample (5 mg) obtained in Example 22 were added to a sample bottle, and 1 mL of SGF (simulated gastric fluid), FaSSIF (fasted state simulated intestinal fluid), FeSSIF (fed state simulated intestinal fluid), and water were separately added. The resulting suspensions were shaken at 37° C. at a rotation speed of 200 rpm for 24 h and filtered. The resulting filtrates were subjected to the concentration test, and the resulting solids were subjected to XRPD characterization.

Solid stability study = format: physicochemical; settings: 7 days
Experimental: Test Example 3: Solid Stability Study
The crystalline form I (5 mg) obtained in Example 1 and the crystalline form II (5 mg) obtained in Example 22 were weighed into sample bottles; the samples were subjected to solid-state stability studies after being placed under the conditions of 60° C. (closed) and 40° C./75% RH (open); and sampling was performed on day 7 for XRPD characterization.

[2] = Dynamic vapor sorption/desorption (DVS) analysis; format: physicochemical
Experimental: 2. Dynamic Vapor Sorption/Desorption (DVS) Analysis
Instrument: DVS Intrinsic plus (SMS, UK).
Method: a sample is placed in a tared sample basket, the weight of the sample is automatically measured, and the sample is dried at 40° C./0% RH until dm/dt is less than 0.002% and then cooled to 25° C.

Grinding stability study = format: physicochemical
[3] = Competitive suspension experiments; format: physicochemical; settings: for XRPD result (room temperature): 25° C.
Experimental: Test Example 1: Competitive Suspension Experiments
Equal amounts (6 mg) of the crystalline form I sample of the compound of formula B obtained in Example 1, the crystalline form II sample of the compound of formula B obtained in Example 22, and the crystalline form III sample of the compound of formula B obtained in Example 33 were mixed. The resulting mixture was separately stirred at room temperature (25° C.) and at a high temperature (50° C.) for 24 h, 2 days, and 7 days in the following solvents, and the remaining solids were subjected to the XRPD test.

[4] = male, SD, plasma, iv, intravenously injected, 2.0 mg/kg
[5] = male, SD, plasma, po, intragastrically administered, 5 mg/kg
[6] = Dichloromethane/acetonitrile (V:V = 1:2), 0.5 mL, 24 h
[7] = Dichloromethane/acetonitrile (V:V = 1:2), 0.5 mL, 7 days
[8] = Dichloromethane/ethanol (V:V = 1:4), 0.5 mL, 24 h
[9] = Dichloromethane/ethanol (V:V = 1:4), 0.5 mL, 7 days
[10] = N,N-Dimethylformamide, 0.5 mL, 24 h
[11] = N,N-Dimethylformamide, 0.5 mL, 7 days
[12] = Water/acetone (V:V = 1:1), 1 mL, 2 days
[13] = Water/acetone (V:V = 2:8), 1 mL, 2 days
[14] = Water/acetone (V:V = 5:95), 1 mL, 2 days

N#Cc1cnc(NC(=O)N2CCCc3cc(CN4CCN5CCC[C@@H]5C4=O)c(C=O)nc32)cc1NC1CC1 [compound of formula C]
AUC(0-t) [1, 4]: 2550 ng·h/mL | clearance [1, 4]: 13.4 mL/min/kg | half-life [1, 4]: 1.23 h | bioavailability ([1]; male, SD, plasma, oral, intragastric 5 mg/kg vs intravenous 2.0 mg/kg, read-out: absolute bioavailability): 35.3% | AUC(0-t) [1, 5]: 2250 ng·h/mL | Cmax [1, 5]: 597 ng/mL | half-life [1, 5]: 1.24 h | Tmax ([1]; male, SD, plasma, po, intragastrically administered, 5 mg/kg, read-out: time at which the plasma concentration reached the peak value (Tmax)): 2.5 h | volume distribution ([1]; intravenously injected, 2.0 mg/kg): 0.973 L/kg

N#Cc1cnc(NC(=O)N2CCCc3cc(CN4CCN5CCC[C@H]5C4=O)c(C=O)nc32)cc1NC1CC1 [Crystalline form II]
FaSSIF Solubility (Solubility test; FaSSIF (pH about 6.50), 37° C., 24 h): 19 µg/mL | FeSSIF Solubility (Solubility test; 37° C., 24 h): 5.5 µg/mL | SGF Solubility (Solubility test; SGF (pH about 1.20), 37° C., 24 h): >5000 µg/mL | Water Solubility (Solubility test; 37° C., 24 h): 1.5 µg/mL | XRPD result at 40° C./75% RH (open) (Solid stability study): Unchanged | XRPD result at 60° C. (closed) (Solid stability study): Unchanged

N#Cc1cnc(NC(=O)N2CCCc3cc(CN4CCN5CCC[C@H]5C4=O)c(C=O)nc32)cc1NC1CC1 [Crystalline form I]
solubility at 24 h (Solubility test; FaSSIF (fasted state simulated intestinal fluid), pH 6.5, fassif, FaSSIF (pH about 6.50), read-out: FaSSIF Solubility): 26 µg/mL (≈ 50.5 µM) | FeSSIF Solubility (Solubility test; 37° C., 24 h): 14 µg/mL | solubility at 24 h (Solubility test; SGF (simulated gastric fluid), pH 1.2, simulated gastric fluid, SGF (pH about 1.20), read-out: SGF Solubility): > 5000 µg/mL | Water Solubility (Solubility test; 37° C., 24 h): 3.1 µg/mL | hygroscopic weight gain ([2]; DVS, 0-90% RH, 25° C.): about 0.24% | hygroscopicity ([2]; DVS, 0-90% RH, 25° C.): almost non-hygroscopic | crystalline form of the sample after the DVS test ([2]; XRPD after DVS): not changed | XRPD result at 40° C./75% RH (open) (Solid stability study): Unchanged | XRPD result at 60° C. (closed) (Solid stability study): Unchanged | Grinding stability result (crystalline form, XRPD) (Grinding stability study; Solid grinding, 2 min): unchanged | Grinding stability result (crystalline form, XRPD) (Grinding stability study; Solid grinding, 5 min): unchanged, but the crystallinity | Grinding stability result (crystallinity, XRPD) (Grinding stability study; Solid grinding, 5 min): became worse | Grinding stability result (crystalline form, XRPD) (Grinding stability study; Solvent grinding, Acetone): unchanged | Grinding stability result (crystalline form, XRPD) (Grinding stability study; Solvent grinding, Acetonitrile): unchanged | Grinding stability result (crystalline form, XRPD) (Grinding stability study; Solvent grinding, Dichloromethane): unchanged | Grinding stability result (crystalline form, XRPD) (Grinding stability study; Solvent grinding, Ethanol): unchanged | Grinding stability result (crystalline form, XRPD) (Grinding stability study; Solvent grinding, Methanol): unchanged

N#Cc1cnc(NC(=O)N2CCCc3cc(CN4CCN5CCC[C@H]5C4=O)c(C=O)nc32)cc1NC1CC1
XRPD result (room temperature) [3, 6]: form I + II | XRPD result (50° C.) [3, 6]: form I + II | XRPD result (room temperature) [3, 7]: form I | XRPD result (50° C.) [3, 7]: form I | XRPD result (room temperature) [3, 8]: form I + II | XRPD result (50° C.) [3, 8]: form I + II | XRPD result (room temperature) [3, 9]: form I | XRPD result (50° C.) [3, 9]: form I | XRPD result (room temperature) [3, 10]: form I + II | XRPD result (50° C.) [3, 10]: form I + II | XRPD result (room temperature) [3, 11]: form I | XRPD result (50° C.) [3, 11]: form I | XRPD result (room temperature) ([3]; Water, 0.5 mL, 7 days): form I + II | XRPD result (50° C.) ([3]; Water, 0.5 mL, 7 days): form I + II | XRPD result (room temperature) [3, 12]: form I + II | XRPD result (50° C.) [3, 12]: form I | XRPD result (room temperature) [3, 13]: form I + II | XRPD result (50° C.) [3, 13]: form I | XRPD result (room temperature) [3, 14]: form I + II | XRPD result (50° C.) [3, 14]: form I
